From patent publication US10265372B2, “Molecular composition for enhancing and rejuvenating maintenance and repair of mammalian tissues” (The Regents of the University of California, priority 2014, dated 2019)
Entries after “also recorded” stand apart in the source; their conditions may differ.

How the values were obtained:
[1] = tested on: rat neural precursor cells; assay: Neural precursor cell proliferation in basal medium, BrdU pulse (FIG. 3C); format: cell-based; settings: rat neural precursor cells in basal medium (DMEM/F12/N2)
From the text: (§1) FIGS. 3A-3C depict dose-curve matrices of OT, Alk5i and OT+Alk5i effects on myogenic and neurogenic cell proliferation. FIGS. 3A-3C show the effect of the indicated concentrations of OT (in nM) and Alk5-inhibitor (a5i, μM) on primary myoblasts in Opti-MEM (FIG. 3A); on old satellite cells isolated from 3 DPI muscle in Opti-MEM with 5% old mouse serum (FIG. 3B); and on rat neural precursor cells in basal medium (DMEM/F12/N2) (FIG. 3C). Cells were pulsed with BrdU, and BrdU immunodetection and Hoechst staining were performed. Percent proliferating cells (myogenic and neurogenic) were quantified (manually, by ImageJ and by Molecular Devices ImageXpress Micro automated epifluorescence imager, with automated cell quantification by MetaXpress). Shown is the percent proliferation visualized as a topographic map.
Isolation and Culture of Neural Progenitor Cells: Primary rat neural progenitor cells (NPCs) isolated from the hippocampi of Fisher 344 rats (Charles River) will be maintained in DMEM/F12 (Life Technologies) containing N2 supplement (Life Technologies) and 10 ng/mL FGF-2 (PeproTech) on laminin (Roche) and polyornithine (Sigma) coated tissue culture plates. […]

[2] = tested on: aged mice
[3] = tested on: primary myoblasts; assay: Primary myoblast proliferation, BrdU pulse, OT/Alk5i dose matrix (FIG. 3A); format: cell-based, mouse; settings: primary myoblasts in Opti-MEM (low mitogen), OT in nM, Alk5i in μM
From the text: as §1
Isolation of Muscle Stem Cells and Primary Myoblasts: Tibialis Anterior (TA) and Gastrocneimus (Gastroc) muscles will undergo enzymatic digestion with collagenase type II. Fat pads and tendons will be removed and rounds of muscle trituration and sedimentation will purify myofibers with associated muscle stem (satellite) cells. Myofibers will be incubated with collagenase type II and dispase; suspensions will be vortexed to release satellite cells from digested fibers, passed through a cell strainer and pre-plated on uncoated dishes for 20 minutes at 37° C., 5% CO2. […]

[4] = tested on: TA muscle regeneration after CTX injury; assay: In vivo epistasis between TGFβ1 and oxytocin: TA muscle regeneration after CTX injury (FIG. 4A-4B); parameters: species or system mouse; settings: young (3 mo) mice, CTX-injured TA, 5 days after injury; for Muscle regeneration after injury, effect of ectopic TGFβ1 alone (histology): recombinant TGFβ1 20 ng/muscle
Method: Further support for the advantages of the combined administration of OT and Alk5i comes from the observation of epistasis between the TGF-beta1 and oxytocin.
FIGS. 4A and 4B show the in vivo epistasis between TGFβ1 and Oxytocin. Young (3 mo) mouse TA muscles were injured with CTX with or without recombinant TGFβ1 (20 ng/muscle), and mice were administered 1 μg/g OT or vehicle (HBSS) by subcutaneous delivery into circulation. TGFβ1 or vehicle and OT were administered again the following day. Mice were sacrificed 5 days after injury and muscle sectioned for histological examination (with Hematoxilin and Eosin staining) in 10 um cryosections. All samples were processed and analyzed in a blinded study. […] FIG. 4B depicts the regenerative index of the three different conditions. The regenerative index was quantified by expressing the number of newly formed fibers over total nuclei in the injury/regeneration sites; *p<0.01.

[5] = tested on: muscle stem cells (satellite cells); assay: Effects of OT and OTA on muscle stem (satellite) cells; format: cell-based, mouse
[6] = tested on: muscle stem cells (satellite cells); settings: cited from earlier work
[7] = tested on: muscle regeneration; settings: Elabd et al. 2014, cited from earlier work
[8] = tested on: muscle regeneration; assay: Systemic oxytocin or oxytocin antagonist and muscle regeneration in mice; format: in vivo, mouse; settings: OT alone
From the text: OXTR agonists may be used to treat and prevent sarcopenia, improve muscle regeneration after injury and prevent muscle mass loss observed after long term immobilization (bed rest or cast), as well as low gravity (space travel). Specifically, oxytocin is more desirable than other drugs on the market or under development, since it is physiologic, has virtually no side effects and is already FDA approved to induce labor in pregnant women and in clinical trials to treat children with autism. The plasmatic level of oxytocin decreases with age in mice. […] Confirming the dependence of muscle maintenance and repair on oxytocin, mice with a knock out in oxytocin have defective muscle regeneration and premature sarcopenia (loss of muscle tissue). Oxytocin is also known to prevent osteoporosis and regulate fat distribution after menopause. Oxytocin inhibits p16 (marker and effector of senescence) in adult stem cells, thereby enabling their productive responses to maintain and repair tissues.

Compound: Cc1cccc(-c2n[nH]cc2-c2ccc3ncccc3n2)n1 [Alk5i, 2-(3-(6-Methylpyridin-2-yl)-1H-pyrazol-4-yl)-1,5-naphthyridine]
- Percent proliferating cells (BrdU), NPC proliferation [1]: diminishes proliferation of NPCs
- Expression of CDKIs ([2]; aged mice): attenuates the expression of CDKIs
- Myogenesis and neurogenesis ([2]; aged/old mice, systemic Alk5i alone, listed as ALK5 inhibitor): simultaneously rejuvenates myogenesis and neurogenesis
- Inflammation ([2]; delivered systemically into 2-year old mice): reduces inflammation
- pSmads in Sox-2+ cells of SGZ ([2]; systemically administered): down-modulating pSmads
- Percent proliferating cells (BrdU), myoblast proliferation [3]: bi-phasic effect on myoblast proliferation

Compound: CC[C@H](C)[C@@H]1NC(=O)[C@H](Cc2ccc(O)cc2)NC(=O)[C@@H](N)CSSC[C@@H](C(=O)N2CCC[C@H]2C(=O)N[C@@H](CC(C)C)C(=O)NCC(N)=O)NC(=O)[C@H](CC(N)=O)NC(=O)[C@H](CCC(N)=O)NC1=O [OT, oxytocin]
- Muscle regeneration after injury in mice given ectopic TGFβ1 (histology) ([4]; TGFβ1 20 ng/muscle, OT 1 μg/g subcutaneous): rescued muscle regeneration; also recorded: rescues the regeneration of young muscle injected with TGFβ1
- pERK in muscle stem cells ([5]; muscle stem cells): activates pERK
- CDKIs in satellite cells ([5]; old satellite cells): attenuates CDKIs
- Proliferation and myogenicity of old satellite cells ([5]; old satellite cells): enhances proliferation and myogenicity
- OtKO satellite cell decline ([5]; satellite cells of oxytocin knock out (OtKO) mice): rescues the OtKO satellite cell decline
- p16 (marker and effector of senescence) in adult stem cells [6]: inhibits p16
- Muscle regeneration in old mice ([7]; old mice, short term subcutaneous injection (systemic delivery)): able to restore muscle regeneration
- Muscle maintenance and repair in old mice [8]: significantly enhances muscle maintenance and repair

Compound: COc1cc(OC2CCN(C(C)=O)CC2)ccc1C(=O)N1CCC(N2C(=O)OCc3ccccc32)CC1 [OTA]
- Myogenicity of young satellite cells ([5]; young satellite cells): inhibits myogenicity
- Muscle regeneration potential in young mice ([7]; young mice, injection of oxytocin antagonist): prematurely ages their muscle regeneration potential

Compound: TGFβ1: recombinant TGFβ1, given ectopically into injured muscle (R&D systems)
- Muscle regeneration after injury, effect of ectopic TGFβ1 alone (histology) [4]: promotes scarring
- Muscle regeneration after injury, effect of ectopic TGFβ1 alone (histology) ([4]; listed as TGF-beta 1): inhibited muscle regeneration
